Assay results taken from PMC9786284, “Synthesis and Antiproliferative Effect of Halogenated Coumarin Derivatives” (Molecules, 2022).
Read-outs that look alike come from different tables or passages of the source.

Columns and labels:
Assay type in all cases: cell-based
MTT cell viability assay = conditions: human, MTT, 24 h, concentration required to inhibit cell proliferation by 50%, mean ± SD
Description: (§1) The cytotoxic effect of coumarins 2a–k was tested on several cancer and normal cell lines: lung cancer cell line (SK-MES-1), thyroid cancer cell lines (K-1; B-CPAP ant TPC-1), lung fibroblast (MRC-5) and thyroid normal cell line (Nthy-ori-3-1) by MTT (3-[4,5-dimethylthiazol-2-yl]-2,5 diphenyltetrazolium bromide) assay.
(§2) The papillary thyroid carcinoma (PTC)-derived cell lines (TPC-1 and B-CPAP) were kindly provided by Dr. Fusco (Medical School, University Federico II of Naples, Naples, Italy). K-1 PTC-derived cell line and non-tumorigenic thyroid Nthy-ori-3-1 cell line were purchased from Health Protection Agency Culture Collections. The PTC-derived cell lines were maintained in DMEM/F12 (Gibco-BRL. Life Technologies, Milan, Italy)] supplemented with 10% fetal bovine serum (Gibco-BRL) at 37 °C in humidified 5% CO2. SK-MES-1 and MRC-5 were purchased from American Type Culture Collection (ATCC) and were maintained in Mem-E medium, supplemented with 10% fetal bovine serum, 100 units/mL penicillin G, and 100 μg/mL streptomycin (Gibco-BRL) at 37 °C in humidified 5% CO2.
(§3) The effect of test compounds on the viability of cells was detected by MTT assay. The thyroid cells (7.5 × 10^3 cells/mL), SK-MES-1, and MRC-5 (8 × 10^4 cells/mL) were seeded into a 96-well plate and allowed to adhere for 16 h to culture plates before the addition of the compounds.
(§4) Then, compounds were added at different concentrations (0.8–100 μM), and cells were further incubated for 24 h. Cells with no treatment were used as a negative control. After incubation, cells were treated with MTT solution for 3 h at 37 °C. Then, the MTT solution was removed, and 150 µL of DMSO was added to the wells. The absorbances were measured at 570 nm using a TECAN microplate reader (Infinite 200, Tecan, Salzburg, Austria). Viability data were reported as % of control (untreated cells) for each cell line.

[1] = system: B-CPAP thyroid cancer cell line; assay: MTT cell viability assay
Description: as §1, §2, §3, §4

[2] = system: K-1 thyroid cancer cell line; assay: MTT cell viability assay
Description: as §1, §2, §3, §4

[3] = system: SK-MES-1 lung cancer cell line; assay: MTT cell viability assay
Description: as §1, §2, §3, §4

[4] = system: TPC-1 thyroid cancer cell line; assay: MTT cell viability assay
Description: as §1, §2, §3, §4

MRC-5 lung fibroblast = assay: MTT cell viability assay
Description: as §1, §2, §3, §4

[5] = system: Nthy-ori-3-1 thyroid normal cell line; assay: MTT cell viability assay
Description: as §1, §2, §3, §4

[6] = Nthy-ori-3-1 normal thyroid cells, Nthy-ori-3-1
[7] = Homo sapiens, BCPAP, B-CPAP, MTT, 24 h, concentration required to inhibit cell proliferation by 50%, mean ± SD, read-out: CC50
[8] = K-1, MTT, 24 h, concentration required to inhibit cell proliferation by 50%, mean ± SD, read-out: CC50
[9] = Homo sapiens, SK-MES-1, MTT, 24 h, concentration required to inhibit cell proliferation by 50%, mean ± SD, read-out: CC50
[10] = Homo sapiens, TPC1, TPC-1, MTT, 24 h, concentration required to inhibit cell proliferation by 50%, mean ± SD, read-out: CC50

Molecule	CC50 at 24 h (MTT cell viability assay; MRC-5 lung fibroblasts, MRC-5) [µM]	CC50 at 24 h (MTT cell viability assay; [6]) [µM]	CC50 [1, 7] [µM]	CC50 [2, 8] [µM]	CC50 [3, 9] [µM]	CC50 [4, 10] [µM]	CC50 [1] [µM]	CC50 [2] [µM]	CC50 (MRC-5 lung fibroblast) [µM]	CC50 [5] [µM]	CC50 [3] [µM]	CC50 [4] [µM]
N#Cc1cc2cc(F)ccc2oc1=O [2a, 6-Fluoro-2-oxo-2H-chromene-3-carbonitrile]	> 100	> 100	> 100	> 100	> 100	> 100	–	–	–	–	–	–
N#Cc1cc2cc(Cl)ccc2oc1=O [2c, 6-Chloro-2-oxo-2H-chromene-3-carbonitrile]	> 100	> 100	> 100	> 100	> 100	> 100	–	–	–	–	–	–
CC[C@@]1(O)C(=O)OCc2c1cc1n(c2=O)Cc2cc3ccccc3nc2-1 [Camptothecin, reference compound]	0.1 ± 0.03	0.01 ± 0.02	0.03	–	0.017 ± 0.003	0.01 ± 0.02	–	–	–	–	–	–
CCOC(=O)c1cc2cc(I)cc(I)c2oc1=O [2i, Ethyl 6,8-diiodo-2-oxo-2H-chromene-3-carboxylate]	> 100	> 100	> 100	> 100	> 100	> 100	–	–	–	–	–	–
CCOC(=O)c1cc2cc(Br)cc(Br)c2oc1=O [2g, Ethyl 6,8-dibromo-2-oxo-2H-chromene-3-carboxylate]	> 100	> 100	> 100	> 100	> 100	> 100	–	–	–	–	–	–
O=C(O)c1cc2cc(I)cc(I)c2oc1=O [2j, 6,8-diiodo-2-oxo-2H-chromene-3-carboxylic Acid]	> 100	> 100	> 100	> 100	> 100	> 100	–	–	–	–	–	–
Ethyl 6-fluoro-2-oxo-2H-chromene-3-carboxylate [2b]	–	–	–	–	–	–	> 100	> 100	> 100	> 100	> 100	> 100
N#Cc1cc2cc(Br)ccc2oc1=O [2e, 6-Bromo-2-oxo-2H-chromene-3-carbonitrile]	> 100	> 100	> 100	> 100	> 100	> 100	–	–	–	–	–	–
CS(=O)(=O)c1cc2cc(Br)ccc2oc1=O [2f, 6-Bromo-3-(methylsulfonyl)-2H-chromen-2-one]	> 100	> 100	> 100	> 100	> 100	> 100	–	–	–	–	–	–
CCOC(=O)c1cc2cc(Br)ccc2oc1=O [2d, Ethyl 6-bromo-2-oxo-2H-chromene-3-carboxylate]	> 100	> 100	> 100	> 100	> 100	> 100	–	–	–	–	–	–
